Data published in patent US6417399B1, “Amelioration of neurological disorders by the administration of (2R),(3S), and/or (2S),3(S) stereoisomers of valnoctamide” (Yissum Research Development Company of the Hebrew …, priority 1997, dated 2002).
Values joined by “and” are separate entries in the source; they are usually repeats but may differ in a detail not shown here. Identical values can stand only once.

Legend:
Type in all cases: in vivo, human
[1] = Pharmacokinetics of VCD stereoisomers in plasma after repeated oral dosing of racemic valnoctamide to epileptic patients; conditions: repeated oral racemic VCD 200 mg tid, last day
Protocol: (§1) Patients Six epileptic patients (four men and two women aged 23-35 years, with a body weight of 56-85 kg) were studied. All had been receiving a constant carbamazepine dose (800-1200 mg/day) for at least three months. One patient was also receiving phenytoin (250 mg/day) and a second patient phenobarbital (150 mg/day). Each patient received add-on VCD for eight consecutive days at a dosage of 400 mg on day 1 (single dose day), followed by 200 mg three times daily (tid) for seven days. On the last day, only the morning and the midday doses were administered. Blood samples for plasma VCD levels were collected at 0, 0.25, 0.5, 1, 1.5, 2, 3, 4, 5, 6, 8, 10, 12 and 24 hours after the first and the last morning dose. Additional samples were taken at times 0, 0.5, 1, and 2 hours after the morning dose on the last treatment day.
(§2) Plasma Handling and Analytical Assays Plasma samples were separated immediately by centrifugation at 2,000 g for 10 minutes and stored at −20° C. until assaying (VCD is stable at −20° C.). The VCD plasma samples were analyzed by a gas chromatograph (HP 5890 series II)-mass spectrometer (HP 5989A)-GC-MS data system equipped with chiral capillary column. The mass spectrometer was operated in E1 mode at 70eV, the source temperature of the MS was maintained at 200° C. and the quadruple at 100° C. Mass units and their relative abundance were calibrated with perfluorotributylamine (PFTBA). Spectra were collected in the range of […], and the chiral analysis started 18 minutes after injection. Gas chromatograph (GC) oven temperature programming conditions were as follows: 50° C. for 1 minute, then increasing at a rate of 8° C./minute until 100° C., holding for a minute then 4° C./minute until reaching a final temperature of 250° C. The injector temperature is 240° C. and the GC-MS transfer line temperature is 250° C. Inlet pressure is 5 psi with a linear flow rate 20 cm/second. Helium was used as the carrier gas. Chromatographic resolution of the VCD stereoisomers was accomplished by a direct separation on a chiral stationary phase (CSP) column. The CSP consisted of a Chirasil-γ-Dex (octakis (3-O-butanoyl-2,6-di-o-pentyl)-γ-cyclodextrin chemically linked via a 6-mono-octamethylene spacer to a dimethylpolysiloxane. The 0.25 μm Chirasil-γ-Dex was coated on a 25 m×250 μm (id) fused silica capillary column. This CSP of a cyclodextin derivative allows complete baseline resolution of the four stereoisomers (α=1.04, Rs=2.0-2.4) in 24 minutes as depicted in FIG. 2. Intra and inter-day variability in the retention times of the four VCD stereoisomers was less than 10%. A calibration curve was established by spiking drug-free plasma samples with known amounts of racemic VCD at a concentration range of 0.2 mg/L to 8 mg/L (or 0.05 mg/L to 2 mg/L of each of the four VCD stereoisomers).
(§3) Pharmacokinetic and Statistical Analysis Pharmacokinetic parameters were calculated by noncompartmental analysis according to statistical moment theory. Peak plasma concentrations (Cmax) and peak times (tmax) were derived directly from the measured values. The linear terminal slopes (λ) of the log-concentration of each VCD stereoisomer versus time curves were calculated by the peeling procedure. Half life (t½) values were calculated as 0.693/λ. Areas under the plasma concentration versus time curve (AUC), after single dosing, were calculated by the trapezoidal rule with extrapolation to infinity by dividing the last measured concentration by the terminal slope. During repeated administration AUC was calculated over the last two dosing intervals by using the trapezoidal rule. Mean residence time (MRT) was calculated after single dosing as AUMC/AUC, in which AUMC is the area under the concentration×time product versus time curve from zero to infinity. Following single dosing, oral clearance (CL/F, in which F is the oral availability) and apparent volume of distribution at steady state (Vss/F) were calculated as Dose/AUC and as MRT×CL/F, respectively. […]

[2] = Pharmacokinetics of VCD stereoisomers in plasma after single oral dose of racemic valnoctamide to epileptic patients; conditions: for CL/F / Cmax / MRT / tmax / t½: single oral 400 mg racemic VCD; for half lives: epileptic patients
Protocol: as §1, §2, §3

[3] = Pharmacokinetics of VCD stereoisomers in plasma after single oral dose of racemic valnoctamide to healthy subjects
Protocol: Healthy Subjects Seven healthy male volunteers, aged 20-31 years, weighing 61 to 85 kg, received 2×200 mg valnoctamide tablets (Nirvanil@) at 08:00 hours after an overnight fast. Venous blood samples were taken through an indwelling catheter 0, 0.5, 1, 2, 3, 4, 5, 6, 8, 10, 12 and 24 hours after dosing. Food was witheld for 4 hours after dosing.
as §2
Pharmacokinetic and Statistical Analysis Pharmacokinetic parameters were calculated by noncompartmental analysis according to statistical moment theory. Peak plasma concentrations (Cmax) and peak times (tmax) were derived directly from the measured values. The linear terminal slopes (λ) of the log-concentration of each VCD stereoisomer versus time curves were calculated by the peeling procedure. Half life (t½) values were calculated as 0.693/λ. Areas under the plasma concentration versus time curve (AUC), after single dosing, were calculated by the trapezoidal rule with extrapolation to infinity by dividing the last measured concentration by the terminal slope. During repeated administration AUC was calculated over the last two dosing intervals by using the trapezoidal rule. Mean residence time (MRT) was calculated after single dosing as AUMC/AUC, in which AUMC is the area under the concentration×time product versus time curve from zero to infinity. Following single dosing, oral clearance (CL/F, in which F is the oral availability) and apparent volume of distribution at steady state (Vss/F) were calculated as Dose/AUC and as MRT×CL/F, respectively. Following repeated dosing, CL/F was calculated from the quotient of the dose (200 mg) and the AUC obtained during one dosing interval (defined as one-half of the AUC calculated over two consecutive dosing intervals). Comparison of the pharmacokinetic parameters of all four VCD stereoisomers was made by ANOVA.

[4] = Mean ± SD of six epileptic patients
[5] = individual epileptic patients, last dosing interval
[6] = individual epileptic patients on carbamazepine
[7] = Mean ± SD of seven healthy subjects, single oral 400 mg racemic VCD
[8] = individual healthy subjects, single oral 400 mg racemic VCD
[9] = individual healthy subjects, single oral 400 mg racemic VCD (Nirvanil), stereoisomer in plasma

| CL/F [1, 4] [L/h] | Cmax [1, 4] [mg/L] | tmax [1, 4] [h] | t½ [1, 4] [h] | CL/F [2, 4] [L/h] | Cmax [2, 4] [mg/L] | MRT [2, 4] [h] | tmax [2, 4] [h] | t½ [2, 4] [h] | half lives [2] | tmax [2, 6] | CL/F [3, 7] [L/h] | Compound | CL/F ([1]; individual epileptic patients) | Cmax ([1]; individual epileptic patients) | tmax ([1]; individual epileptic patients) | t½ [1, 5] | CL/F [2, 6] | Cmax [2, 6] | MRT [2, 6] | t½ [2, 6] | other results |
| --- | --- | --- | --- | --- | --- | --- | --- | --- | --- | --- | --- | --- | --- | --- | --- | --- | --- | --- | --- | --- | --- |
| 58 ± 14 | 0.4 ± 0.1 | 1.4 ± 0.3 | 2.2 ± 0.5 | 80 ± 20 | 0.41 ± 0.12 | 4.0 ± 1.6 | 0.75 ± 0.41 | 3.0 ± 1.3 | about 3 h | 1 h and 0.5 h (4×) and 1.5 h | 8.7 ± 0.9 | CCC(C)C(CC)C(N)=O (single isomer, unassigned; stereoisomer b) [Stereoisomer B] | 79 L/h and 50 L/h (2×) and 52 L/h and 71 L/h and 46 L/h | 0.4 mg/L (2×) and 0.5 mg/L (2×) and 0.3 mg/L (2×) | 2.0 h and 1.5 h (3×) and 1.0 h and 1.25 h | 2.0 h and 1.9 h and 2.9 h and 2.1 h and 4.3 h (2×) | 108 L/h and 60 L/h and 94 L/h and 84 L/h and 56 L/h and 79 L/h | 0.31 mg/L and 0.56 mg/L and 0.3 mg/L and 0.48 mg/L and 0.51 mg/L and 0.32 mg/L | 3.6 h and 5.2 h and 3.3 h and 1.3 h and 5.1 h and 5.6 h | 1.4 h and 4.0 h (2×) and 1.3 h and 3.0 h and 4.1 h | Cmax [3, 7]: 1.3 ± 0.2 mg/L; MRT [3, 7]: 8 ± 1 h; tmax [3, 7]: 0.7 ± 0.3 h; t½ [3, 7]: 5.8 ± 1.1 h; t½ ([3]; Mean ± SD of seven healthy subjects, single oral 400 mg racemic VCD, listed as stereoisomer B): ~5.8 h; CL/F [3, 8]: 7.9 L/h (2×) and 9.2 L/h and 8.4 L/h and 10.2 L/h and 8.1 L/h and 9.3 L/h; Cmax [3, 8]: 1.5 mg/L (2×) and 1.1 mg/L (2×) and 1.4 mg/L (3×); MRT [3, 8]: 7.0 h and 10 h (2×) and 7 h and 9 h and 8 h (2×); tmax [3, 8]: 1 h (3×) and 0.5 h (4×); t½ [3, 9]: 4.7 h and 7.3 h and 4.6 h and 6.0 h and 5.8 h and 5.2 h and 7.1 h |
| 21 ± 4 | 0.9 ± 0.2 | 1.5 ± 0.3 | 2.8 ± 0.7 | 32 ± 7 | 0.78 ± 0.10 | 5.4 ± 1.5 | 0.8 ± 0.5 | 4.1 ± 2.1 | about 3 h | 1.5 h (2×) and 0.5 h (4×) | 4.2 ± 0.6 | CCC(C)C(CC)C(N)=O (single isomer, unassigned; stereoisomer a) [Stereoisomer A] | 23 L/h and 19 L/h (3×) and 20 L/h and 29 L/h | 0.9 mg/L and 1.1 mg/L and 0.72 mg/L and 0.86 mg/L and 0.8 mg/L and 1.2 mg/L | 2.0 h and 1.5 h (3×) and 1.0 h and 1.75 h | 2.2 h and 2.7 h and 3.8 h (2×) and 2.4 h and 4.8 h | 40 L/h and 27 L/h and 35 L/h (2×) and 32 L/h and 20 L/h | 0.71 mg/L (2×) and 0.94 mg/L and 0.82 mg/L and 0.88 mg/L and 0.67 mg/L | 4.4 h and 5.1 h (2×) and 4.3 h and 5.3 h and 8.3 h | 2.8 h and 3.6 h (2×) and 2.5 h and 8.3 h and 3.8 h | Cmax [3, 7]: 1.7 ± 0.2 mg/L; MRT [3, 7]: 15 ± 3 h; tmax [3, 7]: 0.7 ± 0.3 h; t½ [3, 7]: 10.2 ± 2.1 h; t½ ([3]; Mean ± SD of seven healthy subjects, single oral 400 mg racemic VCD, listed as A): approximately 10 h; CL/F [3, 8]: 3.6 L/h and 4.5 L/h and 4.1 L/h and 3.7 L/h and 4.6 L/h and 4.2 L/h and 3.5 L/h; Cmax [3, 8]: 2.0 mg/L and 1.5 mg/L (2×) and 1.8 mg/L (3×) and 1.7 mg/L; MRT [3, 8]: 13 h (2×) and 20 h and 12 h (2×) and 15 h and 18 h; tmax [3, 8]: 1 h (3×) and 0.5 h (4×); t½ [3, 9]: 8.8 h and 13.6 h and 8.1 h and 10.7 h and 9.5 h and 8.5 h and 12.5 h |
| 27 ± 5 | 0.8 ± 0.2 | 1.4 ± 0.3 | 2.9 ± 0.9 | 39 ± 8 | 0.7 ± 0.12 | 4.8 ± 0.4 | 0.83 ± 0.5 | 3.3 ± 0.5 | about 3 h | 1.5 h (2×) and 0.5 h (4×) | 4.3 ± 0.4 | CCC(C)C(CC)C(N)=O (single isomer, unassigned; stereoisomer c) [Stereoisomer C] | 26 L/h and 23 L/h (2×) and 24 L/h and 36 L/h and 28 L/h | 0.81 mg/L and 0.9 mg/L and 0.62 mg/L and 0.7 mg/L and 0.6 mg/L and 1.0 mg/L | 2.0 h and 1.5 h (3×) and 1.0 h and 1.25 h | 2.2 h and 3.0 h and 4.1 h (2×) and 2.3 h and 5.0 h | 50 L/h and 31 L/h and 44 L/h and 38 L/h and 28 L/h and 41 L/h | 0.55 mg/L and 0.82 mg/L and 0.56 mg/L and 0.76 mg/L and 0.8 mg/L and 0.7 mg/L | 4.4 h and 4.8 h (2×) and 4.2 h and 5.4 h and 5.0 h | 2.8 h and 3.4 h and 2.6 h and 3.7 h (2×) and 3.5 h | Cmax [3, 7]: 1.6 ± 0.2 mg/L; MRT [3, 7]: 15 ± 3 h; tmax [3, 7]: 0.7 ± 0.3 h; t½ [3, 7]: 10.3 ± 1.9 h; t½ ([3]; Mean ± SD of seven healthy subjects, single oral 400 mg racemic VCD, listed as C): approximately 10 h; CL/F [3, 8]: 4.0 L/h and 5.1 L/h and 4.3 L/h and 4.1 L/h (2×) and 4.6 L/h and 3.9 L/h; Cmax [3, 8]: 1.8 mg/L (2×) and 1.4 mg/L and 1.7 mg/L (2×) and 1.6 mg/L and 1.5 mg/L; MRT [3, 8]: 12 h (2×) and 18 h (2×) and 14 h and 16 h and 13 h; tmax [3, 8]: 1 h (3×) and 0.5 h (4×); t½ [3, 9]: 8.4 h and 13 h and 8.0 h and 10 h and 11.1 h and 9.2 h and 12.4 h |
